What follows are compounds tested on hypoxia-inducible endogenous VEGF expression (assay: Hypoxia-inducible endogenous VEGF expression ELISA in HeLa cells, dose-response EC50 (Table 3)). Conditions: HeLa cells, hypoxic conditions (1% O2), 24-48 hours, VEGF in conditioned media; read-out: ELISA EC50.
Format: cell-based, human
Procedure: The ability of the Compounds to modulate hypoxia-inducible endogenous VEGF expression may be analyzed as follows. VEGF protein levels may be monitored by an ELISA assay (R&D Systems). Briefly, HeLa cells may be cultured for 24-48 hours under hypoxic conditions (1% O2, 5% CO2, balanced with nitrogen) in the presence or absence of a Compound. The conditioned media may then be assayed by ELISA, and the concentration of VEGF calculated from the standard ELISA curve of each assay.
A dose-response analysis may be performed using the ELISA assay and conditions described above. The conditions for the dose-response ELISA are analogous to those described above. A series of, e.g., seven different concentrations may be analyzed. In parallel, a dose-response cytotoxicity assay may be performed using Cell Titer Glo (Promega) under the same conditions as the ELISA to ensure that the inhibition of VEGF expression was not due to the cytotoxicity.

Row | Compound | EC50
1 | COC(=O)c1ccc(C2c3[nH]c4ccc(Cl)cc4c3CCN2C(=O)Oc2ccc(F)cc2)cc1 (stereo not drawn) [Compound 579] | < 0.008 µM

Same assay, conditions: Homo sapiens, HeLa, read-out: ELISA EC50 μM

Row | Compound | EC50
2 | O=C(COc1ccc(C2c3[nH]c4ccc(Cl)cc4c3CCN2C(=O)Oc2ccc(F)cc2)cc1)NCCN1CCOCC1 (stereo not drawn) [Compound 1022] | 0.04 to 0.2 µM
3 | O=C(Oc1ccc(F)cc1)N1CCc2c([nH]c3ccc(Cl)cc23)C1c1ccc(OCCCCN2CCCCC2)cc1 (stereo not drawn) [Compound 739] | < 0.008 µM
4 | O=C(Oc1ccccc1)N1CCc2c([nH]c3ccc(Cl)cc23)C1c1ccc(OCCCN2CCOCC2)cc1 (stereo not drawn) [Compound 1075] | 0.008 to 0.04 µM
5 | CC(=O)N1CCN(CCCOc2cccc(C3c4[nH]c5ccc(Cl)cc5c4CCN3C(=O)Oc3ccc(F)cc3)c2)CC1 (stereo not drawn) [Compound 1364] | 0.04 to 0.2 µM
6 | CN1CCN(CC(O)COc2ccc(C3c4[nH]c5ccc(Cl)cc5c4CCN3C(=O)Oc3ccc(F)cc3)cc2)CC1 (stereo not drawn) [Compound 963] | 0.008 to 0.04 µM
7 | O=C(Oc1ccc(Cl)cc1)N1CCc2c([nH]c3ccc(Cl)cc23)C1c1ccc(OCCCNCCO)cc1 (stereo not drawn) [Compound 1183] | < 0.008 µM
8 | CC(C)NCCCCOc1ccc(C2c3[nH]c4ccc(Cl)cc4c3CCN2C(=O)Oc2ccc(Cl)cc2)cc1 (stereo not drawn) [Compound 700] | 0.008 to 0.04 µM
9 | NCC(O)COc1ccc(C2c3[nH]c4ccc(Cl)cc4c3CCN2C(=O)Oc2ccc(Cl)cc2)cc1 (stereo not drawn) [Compound 846] | 0.04 to 0.2 µM
10 | COc1cc(C2c3[nH]c4ccc(Cl)cc4c3CCN2C(=O)Oc2ccc(Cl)cc2)ccc1OCCCCN1CCOCC1 (stereo not drawn) [Compound 1094] | 0.008 to 0.04 µM
11 | O=C(Oc1ccc(Cl)cc1)N1CCc2c([nH]c3ccc(Cl)cc23)[C@@H]1c1ccc(OCCC(O)CN(CCO)CCO)cc1 (stereo partly drawn) [Compound 1280] | 0.008 to 0.04 µM
12 | CC(C)NCC(O)COc1ccc(C2c3[nH]c4ccc(Cl)cc4c3CCN2C(=O)Oc2ccc(Cl)cc2)cc1 (stereo not drawn) [Compound 977] | 0.04 to 0.2 µM
13 | O=C(Oc1ccc(F)cc1)N1CCc2c([nH]c3ccc(Cl)cc23)C1c1ccc(OCCCN2CCOCC2)cc1 (stereo not drawn) [Compound 989] | < 0.008 µM
14 | CCN1CCN(C(=O)COc2ccc(C3c4[nH]c5ccc(Cl)cc5c4CCN3C(=O)Oc3ccc(F)cc3)cc2)CC1 (stereo not drawn) [Compound 1024] | 0.04 to 0.2 µM
15 | O=C(Oc1ccc(F)cc1)N1CCc2c([nH]c3ccc(Cl)cc23)C1c1ccc(OCCCCNCCCn2ccnc2)cc1 (stereo not drawn) [Compound 741] | 0.04 to 0.2 µM
16 | O=C(Oc1ccc(F)cc1)N1CCc2c([nH]c3ccc(Cl)cc23)C1c1ccc(OCCCCNCCO)cc1 (stereo not drawn) [Compound 735] | < 0.008 µM
17 | COc1ccc(OC(=O)N2CCc3c([nH]c4ccc(Cl)cc34)C2c2ccc(OCCCN3CCN(C)CC3)cc2)cc1 (stereo not drawn) [Compound 1108] | 0.008 to 0.04 µM
18 | O=C(Oc1ccc(Cl)cc1)N1CCc2c([nH]c3ccc(Cl)cc23)C1c1ccc(OCCCCN2CCCC2)cc1 (stereo not drawn) [Compound 698] | 0.008 to 0.04 µM
19 | CCCN(CCC)CCCOc1ccc([C@H]2c3[nH]c4ccc(Cl)cc4c3CCN2C(=O)Oc2ccc(Cl)cc2)cc1 [Compound 1234] | < 0.008 µM

Same assay, conditions: Homo sapiens; HeLa cells, hypoxic conditions (1% O2), 24-48 hours, VEGF in conditioned media; read-out: ELISA EC50

Row | Compound | EC50
20 | COc1ccc(OC(=O)N2CCc3c([nH]c4ccc(Cl)cc34)C2c2ccc(OCC3OCCO3)cc2)cc1 (stereo not drawn) [Compound 1055] | 0.008 to 0.04 µM
21 | Cc1ccc(OC(=O)N2CCc3c([nH]c4ccc(Cl)cc34)[C@@H]2c2ccc(OCC(C)(CO)CO)cc2)cc1 [Compound 1297] | 0.008 to 0.04 µM
22 | O=C(Oc1ccc(Cl)cc1)N1CCc2c([nH]c3ccc(Cl)cc23)[C@@H]1c1ccc(OC[C@H](O)CO)cc1 [Compound 1223] | < 0.008 µM
23 | CC(C)OC(=O)Nc1ccc(C2c3[nH]c4ccc(Cl)cc4c3CCN2C(=O)Oc2ccc(Cl)cc2)cc1 (stereo not drawn) [Compound 489] | 0.04 to 0.2 µM
24 | COC(=O)c1ccc(C2c3[nH]c4ccc(Cl)cc4c3CCN2C(=O)Oc2ccc(Cl)cc2)cc1 (stereo not drawn) [Compound 580] | < 0.008 µM
25 | COCCOCCOc1ccc(C2c3[nH]c4ccc(Cl)cc4c3CCN2C(=O)Oc2ccc(Br)cc2)cc1 (stereo not drawn) [Compound 680] | < 0.008 µM
26 | O=C(Oc1ccc(F)cc1)N1CCc2c([nH]c3ccc(Cl)cc23)C1c1ccc(OCCn2cncn2)cc1 (stereo not drawn) [Compound 834] | 0.008 to 0.04 µM
27 | COCCOCCOc1ccc(C2c3[nH]c4ccc(Cl)cc4c3CCN2C(=O)Oc2ccccc2)cc1 (stereo not drawn) [Compound 670] | < 0.008 µM
28 | O=C(Oc1ccc(F)cc1)N1CCc2c([nH]c3ccc(Cl)cc23)C1c1ccc(OCCCCCCn2ccnc2)cc1 (stereo not drawn) [Compound 780] | < 0.008 µM
29 | C=CCOc1ccc(C2c3[nH]c4ccc(Cl)cc4c3CCN2C(=O)Oc2ccc(Cl)cc2)cc1 (stereo not drawn) [Compound 999] | < 0.008 µM
30 | O=C(Oc1ccc(Cl)cc1)N1CCc2c([nH]c3ccc(Cl)cc23)[C@@H]1c1ccc(OC(CO)CO)cc1 [Compound 1259] | 0.008 to 0.04 µM
31 | O=C(Oc1ccc(Cl)cc1)N1CCc2c([nH]c3ccc(Cl)cc23)[C@@H]1c1ccc(OCCCn2nccn2)cc1 [Compound 1129] | < 0.008 µM
32 | O=C(Oc1ccc(Cl)cc1)N1CCc2c([nH]c3ccc(Cl)cc23)C1c1ccc(OCC2OCCO2)cc1 (stereo not drawn) [Compound 1053] | < 0.008 µM
33 | O=C(Oc1ccc(Cl)cc1)N1CCc2c([nH]c3ccc(Cl)cc23)C1c1ccc(OCCCO)cc1 (stereo not drawn) [Compound 1111] | < 0.008 µM
34 | O=C(Oc1ccccc1)N1CCc2c([nH]c3ccc(Cl)cc23)C1c1ccc(OCCCn2cncn2)cc1 (stereo not drawn) [Compound 891] | < 0.008 µM
35 | O=C(Oc1ccc(F)cc1)N1CCc2c([nH]c3ccc(Cl)cc23)C1c1ccc(OCCCn2cncn2)cc1 (stereo not drawn) [Compound 892] | < 0.008 µM
36 | Cc1ccc(OC(=O)N2CCc3c([nH]c4ccc(Cl)cc34)[C@@H]2c2ccc(OCCC(O)Cn3ccnn3)cc2)cc1 (stereo partly drawn) [Compound 1289] | < 0.008 µM
37 | COCC(=O)NCC(O)COc1ccc(C2c3[nH]c4ccc(Cl)cc4c3CCN2C(=O)Oc2ccc(Cl)cc2)cc1 (stereo not drawn) [Compound 1225] | 0.008 to 0.04 µM

Row | Compound | EC50
38 | COc1ccc(C2c3[nH]c4ccc(Cl)cc4c3CCN2C(=O)Oc2ccc(Cl)cc2)cc1F (stereo not drawn) [Compound 1199] | 0.008 to 0.04 µM
39 | COc1ccc(C2c3[nH]c4ccc(Cl)cc4c3CCN2C(=O)Oc2ccc(F)cc2)cc1F (stereo not drawn) [Compound 1195] | 0.008 to 0.04 µM
40 | Cc1ccc(C2c3[nH]c4ccc(Br)cc4c3CCN2C(=O)Oc2ccc(Cl)cc2)cc1 (stereo not drawn) [Compound 353] | < 0.008 µM
41 | O=C(Oc1ccc(Cl)cc1)N1CCc2c([nH]c3ccc(Cl)cc23)[C@@H]1c1ccc(OC[C@@H](O)CO)cc1 [Compound 1224] | < 0.008 µM
42 | COCCOc1ccc(C2c3[nH]c4ccc(Cl)cc4c3CCN2C(=O)Oc2ccc(Cl)cc2)cc1 (stereo not drawn) [Compound 418] | < 0.008 µM
43 | O=C(O)c1ccc(C2c3[nH]c4ccc(Cl)cc4c3CCN2C(=O)Oc2ccc(F)cc2)cc1 (stereo not drawn) [Compound 581] | > 1 µM
44 | O=C(Oc1ccc(F)cc1)N1CCc2c([nH]c3ccc(Cl)cc23)C1c1ccc(OCCCO)cc1 (stereo not drawn) [Compound 1110] | < 0.008 µM
45 | C=CC(=O)Nc1ccc(C2c3[nH]c4ccc(Cl)cc4c3CCN2C(=O)Oc2ccc(Cl)cc2)cc1 (stereo not drawn) [Compound 500] | 0.04 to 0.2 µM
46 | COc1ccc(OC(=O)N2CCc3c([nH]c4ccc(Cl)cc34)C2c2ccc(OC)cc2F)cc1 (stereo not drawn) [Compound 1267] | 0.008 to 0.04 µM
47 | CC(=O)NCC(O)COc1ccc(C2c3[nH]c4ccc(Cl)cc4c3CCN2C(=O)Oc2ccc(Cl)cc2)cc1 (stereo not drawn) [Compound 847] | 0.008 to 0.04 µM
48 | CC(=O)Oc1ccc(C2c3[nH]c4ccc(Cl)cc4c3CCN2C(=O)Oc2ccc(Cl)cc2)cc1 (stereo not drawn) [Compound 463] | 0.008 to 0.04 µM
49 | Cc1ccc(OC(=O)N2CCc3c([nH]c4ccc(Cl)cc34)C2c2ccc(OCCCCl)cc2)cc1 (stereo not drawn) [Compound 915] | < 0.008 µM
50 | COc1ccc(OC(=O)N2CCc3c([nH]c4ccc(Cl)cc34)C2c2ccc(OCCCO)cc2)cc1 (stereo not drawn) [Compound 1058] | < 0.008 µM
51 | O=C(Oc1ccccc1)N1CCc2c([nH]c3ccc(Cl)cc23)[C@@H]1c1ccc(OCC[C@H](O)CO)cc1 [Compound 1299] | < 0.008 µM
52 | COc1ccc(OC(=O)N2CCc3c([nH]c4ccc(Cl)cc34)C2c2ccc(OCCCn3cncn3)c(OC)c2)cc1 (stereo not drawn) [Compound 1151] | 0.04 to 0.2 µM
53 | O=C(Oc1ccc(Cl)cc1)N1CCc2c([nH]c3ccc(Cl)cc23)C1c1ccc(OCCCI)cc1 (stereo not drawn) [Compound 617] | 0.008 to 0.04 µM
54 | O=C(O)c1ccc(C2c3[nH]c4ccc(Br)cc4c3CCN2C(=O)Oc2ccc(Cl)cc2)cc1 (stereo not drawn) [Compound 519] | 0.2 to 1 µM
55 | O=C(Oc1ccccc1)N1CCc2c([nH]c3ccc(Cl)cc23)C1c1ccc(OCC(O)CO)cc1 (stereo not drawn) [Compound 626] | 0.008 to 0.04 µM

Same assay, conditions: Homo sapiens; HeLa cells, hypoxic conditions (1% O2), VEGF ELISA of conditioned media; read-out: ELISA EC50

Row | Compound | EC50
56 | CCCOC(=O)NCC(O)COc1ccc(C2c3[nH]c4ccc(Cl)cc4c3CCN2C(=O)Oc2ccc(Cl)cc2)cc1 (stereo not drawn) [Compound 1563] | 0.008 to 0.04 µM
57 | O=C(Oc1ccc(Cl)cc1)N1CCc2c([nH]c3ccc(Cl)cc23)C1c1ccc(OCCNc2ncncn2)cc1 (stereo not drawn) [Compound 1442] | < 0.008 µM
58 | CS(=O)(=O)CCCOc1ccc([C@H]2c3[nH]c4ccc(Cl)cc4c3CCN2C(=O)Oc2ccc(Cl)cc2)cc1 [Compound 1648] | < 0.008 µM
59 | O=C(NCC(O)COc1ccc(C2c3[nH]c4ccc(Cl)cc4c3CCN2C(=O)Oc2ccc(Cl)cc2)cc1)c1cccnc1 (stereo not drawn) [Compound 1561] | 0.008 to 0.04 µM
60 | CC(CO)(CO)COc1ccc(C2c3[nH]c4ccc(Br)cc4c3CCN2C(=O)Oc2ccc(Cl)cc2)cc1 (stereo not drawn) [Compound 1353] | < 0.008 µM
61 | N#Cc1cn(CCOc2ccc(C3c4[nH]c5ccc(Cl)cc5c4CCN3C(=O)Oc3ccc(F)cc3)cc2)nc1N (stereo not drawn) [Compound 1441] | 0.008 to 0.04 µM
62 | CS(=O)(=O)NCC(O)CCOc1ccc([C@H]2c3[nH]c4ccc(Cl)cc4c3CCN2C(=O)Oc2ccc(Cl)cc2)cc1 (stereo partly drawn) [Compound 1667] | < 0.008 µM
63 | CC(=O)OCC1OC(n2cc(CCOc3ccc([C@H]4c5[nH]c6ccc(Cl)cc6c5CCN4C(=O)Oc4ccc(Cl)cc4)cc3)nn2)C(OC(C)=O)C(OC(C)=O)C1OC(C)=O (stereo partly drawn) [Compound 1677] | 0.04 to 0.2 µM

Source: patent publication US20120157401A1, “METHODS FOR TREATING NEUROFIBROMATOSIS” (PTC Therapeutics, Inc., priority 2009, published 2012)
